Assay results: patent US10961258B2, “Heterocyclic amides as kinase inhibitors” (GLAXOSMITHKLINE INTELLECTUAL PROPERTY DEVELOPMENT LIMITED, priority 2015, dated 2021)

How the values were obtained:
GST-RipK1(1-375) = target: T1, GST-RipK1(1-375) (Homo sapiens, UniProt Q13546); experiment: Fluorescent polarization based binding assay at the ATP binding pocket of RIP1; settings: FP competition with fluorescently labeled ATP competitive ligand 5 nM; GST-RipK1(1-375) 10 nM; mean of minimum 2 experiments
T1 construct: GST-RipK1 Preparation: His.GST.TEV.RIPK1 1-375; His (N); TEV cleavage site (N); made in house; host or cells: Spodoptera frugiperda (Sf9) insect cells, baculovirus
T1 sequence (Q13546 1-375): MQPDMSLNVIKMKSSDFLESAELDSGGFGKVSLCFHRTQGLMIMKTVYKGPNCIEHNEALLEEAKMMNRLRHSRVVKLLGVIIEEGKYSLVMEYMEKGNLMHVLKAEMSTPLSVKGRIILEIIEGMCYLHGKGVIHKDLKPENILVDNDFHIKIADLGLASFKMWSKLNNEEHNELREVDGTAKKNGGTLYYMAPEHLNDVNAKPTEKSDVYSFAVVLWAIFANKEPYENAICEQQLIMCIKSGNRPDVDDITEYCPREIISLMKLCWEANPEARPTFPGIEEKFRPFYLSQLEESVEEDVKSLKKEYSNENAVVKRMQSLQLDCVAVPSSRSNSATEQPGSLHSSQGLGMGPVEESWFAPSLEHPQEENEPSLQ
Method: A fluorescent polarization based binding assay was developed to quantitate
interaction of novel test compounds at the ATP binding pocket of RIP 1, by competition with a fluorescently labeled ATP competitive ligand. GST-RipK1(1-375) was purified from a Baculovirus expression system and was used at a final assay concentration of 10 nM. A fluorescent labeled ligand (14-(2-{[3-({2-{[4-(cyanomethyl)phenyl]amino}-6-[(5-20 cyclopropyl-1H-pyrazol-3-yl)amino]-4-pyrimidinyl}amino)propyl]amino}-2-oxoethyl)16,16,18,18-tetramethyl-6,7,7a,8a,9,10,16,18-octahydrobenzo[2″,3″ ]indolizino[8″,7″:5′,6′]pyrano[3′,2′:3,4]pyrido[1,2-a]indol-5-ium-2-sulfonate (prepared as described in WO2014125444, the disclosure of which is incorporated by reference herein) was used at a final assay concentration of 5 nM. Both the enzyme and ligand were prepared in solutions in 50 mM HEPES pH7.5, 10 mM 25 NaCl, 50 mM MgCl2, 0.5 mM DTT, and 0.02% CHAPS. Test compounds were prepared in neat DMSO and 100 nL was dispensed to individual wells of a multiwell plate. Next, 5 ul GST-RipK1(1-375) was added to the test compounds at twice the final assay concentration, and incubated at room temperature for 10 minutes. Following the incubation, 5 ul of the fluorescent labeled ligand solution, was added to each reaction, at twice the final assay concentration, and incubated at room temperature for at least 15 minutes. Finally, samples were read on an instrument capable of measuring fluorescent polarization. Test compound inhibition was expressed as percent (%) inhibition of internal assay controls. For concentration response experiments, normalized data were fit and pIC50s determined using conventional techniques. The pIC50s are averaged to determine a mean value, for a minimum of 2 experiments.
The RIPK 1 gene [receptor (TNFRSF)-interacting serine-threonine kinase 1] was cloned from human adrenal gland cDNA. Primers were designed from the reference sequence NM_003804.3 with an added CACC Kozak directional tag for cloning into pENTR/TEV/D-TOPO. Gateway® LR cloning was used to site-specifically recombine RIPK1 downstream to an N-terminal HisGST contained within the destination vector pDEST8-His.GST according to the protocol described by Invitrogen.

[1] = tested on: human monocytic leukemia U937 cells; experiment: U937 necroptosis assay (TNFα + QVD, Cell Titer-Glo viability); type: cell-based; settings: U-937, QVD 50 uM, TNFα 100 ng/ml overnight, cellular ATP by Cell Titer-Glo
Method: The efficacy of RIP1 inhibitors can be tested […] in vitro using a human monocytic leukemia U937 cells in a necroptosis assay (He, S. et al. 2009. Cell 137(6): 1100-1111). Cells were maintained in RPMI supplemented with 10% fetal bovine serum 100 U/ml penicillin, 100 ug/ml streptomycin. For the assay, cells were suspended at 5e5 cells/ml in phenol red free RPMI supplemented with 1% fetal bovine serum, 100 U/ml penicillin, 100 ug/ml streptomycin. Thirty-five (35) ul of the cell suspension was aliquotted into a white, half area assay plate. Five (5) ul each of QVD (final concentration 50 uM) or compound was added to the cells and incubated at 37° C. for 30 min to 1 h. Following the incubation, 5 ul TNFα (final concentration 100 ng/ml) was added to the cells and the samples were incubated overnight. The next day, cellular levels of ATP was determined using the Cell Titer-Glo Luminescent Cell Viability kit (available from Promega Corporation, Madison, Wis., USA). Viability was measured by quantitating cellular levels of ATP using the Cell Titer-Glo kit. All data are shown as means±standard deviation of the mean.

| SMILES | IC50 (GST-RipK1(1-375)) | IC50 [1] |
| --- | --- | --- |
| Cc1sc(C)c2c1CCC(NC(=O)c1nnc(Cc3ccccc3)[nH]1)C(=O)N2 (stereo not shown) [Example 1, 5-Benzyl-N-(6,8-dimethyl-2-oxo-2,3,4,5-tetra hydro-1H-thieno[3,4-b]azepin-3-yl)-4H-1,2,4-triazole-3-carboxamide] | 100 nM | 398 nM |
| O=C(NC1CCc2sccc2NC1=O)c1nnc(Cc2ccccc2)[nH]1 (stereo not shown) [Example 2, 5-Benzyl-N-(5-oxo-5,6,7,8-tetrahydro-4H-thieno[3,2-b]azepin-6-yl)-4H-1,2,4-triazole-3-carboxamide] | 251 nM | 794 nM |
| Cc1cc2c(s1)CCC(NC(=O)c1nnc(Cc3ccccc3)[nH]1)C(=O)N2 (stereo not shown) [Example 3, 5-Benzyl-N-(2-methyl-5-oxo-5,6,7,8-tetrahydro-4H-thieno[3,2-b]azepin-6-yl)-4H-1,2,4-triazole-3-carboxamide] | 79.4 nM | 631 nM |
| Cn1ccc2c1CCC(NC(=O)c1nnc(Cc3ccccc3)[nH]1)C(=O)N2 (stereo not shown) [Example 4, 5-Benzyl-N-(1-methyl-5-oxo-1,4,5,6,7,8-hexahydropyrrolo[3,2-b]azepin-6-yl)-4H-1,2,4-triazole-3-carboxamide] | 794 nM | 1260 nM |
| Cc1cn(C)c2c1NC(=O)C(NC(=O)c1nnc(Cc3ccccc3)[nH]1)CC2 (stereo not shown) [Example 5, 5-Benzyl-N-(1,3-dimethyl-5-oxo-1,4,5,6,7,8-hexahydropyrrolo[3,2-b]azepin-6-yl)-4H-1,2,4-triazole-3-carboxamide] | 631 nM | > 10000 nM |
| O=C(NC1CCc2[nH]c3ccccc3c2NC1=O)c1nnc(Cc2ccccc2)[nH]1 (stereo not shown) [Example 6, 5-Benzyl-N-(2-oxo-1,2,3,4,5,6-hexahydroazepino[3,2-b]indol-3-yl)-4H-1,2,4-triazole-3-carboxamide] | 39.8 nM | 251 nM |
| O=C(NC1CCc2oc3c(c2NC1=O)CCCC3)c1nnc(Cc2ccccc2)[nH]1 (stereo not shown) [Example 10, 5-benzyl-N-(2-oxo-2,3,4,5,7,8,9,10-octahydro-1H-benzofuro[3,2-b]azepin-3-yl)-4H-1,2,4-triazole-3-carboxamide] | 794 nM |  |

The next molecules have a lower IC50 (GST-RipK1(1-375)) than those just listed; values first:

| IC50 (GST-RipK1(1-375)) | SMILES | IC50 [1] |
| --- | --- | --- |
| 25.1 nM | O=C(N[C@H]1CSc2cccn2NC1=O)c1nnc(Cc2ccccc2)[nH]1 [Example 8, (R)-5-Benzyl-N-(4-oxo-2,3,4,5-tetrahydropyrrolo[2,1-b][1,3,4]thiadiazepin-3-yl)-4H-1,2,4-triazole-3-carboxamide] | 79.4 nM |
| 20 nM | Cc1nsc2c1N(C)C(=O)[C@@H](NC(=O)c1nnc(Cc3ccccc3)[nH]1)CN2 [Example 7, (S)-5-Benzyl-N-(3,4-dimethyl-5-oxo-5,6,7,8-tetrahydro-4H-isothiazolo[4,5-b][1,4]diazepin-6-yl)-4H-1,2,4-triazole-3-carboxamide] | 15.8 nM |
| 10 nM | CN1C(=O)[C@@H](NC(=O)c2nnc(Cc3ccccc3)[nH]2)CSc2cccn21 [Example 9, (R)-5-Benzyl-N-(5-methyl-4-oxo-2,3,4,5-tetrahydropyrrolo[2,1-b][1,3,4]thiadiazepin-3-yl)-4H-1,2,4-triazole-3-carboxamide] | 5.01 nM |
